Holding throughout (type): biochemical
One assay addresses CDK2/CCNE1 (Homo sapiens, UniProt P24941). The assay is described as follows: CDK2 homogeneous time-resolved fluorescence (HTRF) kinase assay. The settings on record: CDK2/CCNE. The essentials: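 CDK2/CCNE1 (3 nM) preincubated 20 min at 23 °C with compound, then reacted 60 min at 23 °C with 1 mM ATP and 50 nM ULight-4E-BP1 (Thr37/46) peptide. Stopped with EDTA, phospho-peptide detected by Eu-anti-phospho antibody (665 nm or 665/615 ratio). IC50 from 11-point half-log titrations typically starting at 10 μM.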
On the technique in general: TR-FRET usually uses a lanthanide donor and a delayed reading to cut background.

For a further assay, the target named is CDK1/CCNB1 (Homo sapiens, UniProt P06493). The assay is described as follows: CDK1 homogeneous time-resolved fluorescence (HTRF) kinase assay. The conditions noted are these: CDK1/CCNB. The gist of the method:
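High-ATP (1 mM) HTRF assay with 0.5 nM CDK1/cyclin B1 and 50 nM ULight-4E-BP1 (Thr37/46) substrate, 60 min at 23 °C after 20-min compound preincubation. IC50 values come from dose-response curves.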

The target in another assay is CDK4/CCND3 (Homo sapiens, UniProt P11802). The assay is described as follows: CDK4 homogeneous time-resolved fluorescence (HTRF) kinase assay. The conditions noted are these: CDK4/CCND. The gist of the method:
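Steps: compound plus 1.5 nM CDK4/CCND3, 20 min, 23 °C; add 1 mM ATP and 50 nM ULight-4E-BP1 (Thr37/46) peptide, 60 min; stop with 10 mM EDTA; add 2 nM Eu anti-phospho antibody, 60 min; read 665 nm. IC50 from 11-point half-log series starting 10 μM.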

The next assay concerns the target CDK6/CCND1 (Homo sapiens, UniProt Q00534). The assay is described as follows: CDK6 homogeneous time-resolved fluorescence (HTRF) kinase assay. The settings on record: CDK6/CCND, 1 mM ATP. The gist of the method:
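Enzyme pre-incubated 20 min at 23 °C with compound, then reacted 60 min at 23 °C with 1 mM ATP and 50 nM ULight-4E-BP1 (Thr37/46) peptide; 1 nM enzyme, 1% DMSO. EDTA-stopped, Eu-anti-phospho antibody TR-FRET read (665 nm or 665/615 ratio); 11-point half-log titration from 10 μM gave IC50.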

[1] abbreviates: <25 nM, read-out: CDK2/CCNE IC50, <25 nM.
[2] abbreviates: >250 nM, read-out: CDK1/CCNB IC50 >250 nM.
Setting [3] is: >250 nM, read-out: CDK4/CCND IC50, >250 nM.
Setting [4] is: >250 nM, read-out: CDK6/CCND IC50, >250 nM.
Setting [5] is: 25-250 nM, read-out: CDK2/CCNE IC50, 25-250 nM.
[6] abbreviates: 25-250 nM, read-out: CDK4/CCND IC50, 25-250 nM.
Where [7] appears, read: 25-250 nM, read-out: CDK6/CCND IC50, 25-250 nM.

Each structure is given as a SMILES string. Like-named read-outs stand apart in the source and are kept apart here.

Sequence of CDK4/CCND3 (P11802 whole entry): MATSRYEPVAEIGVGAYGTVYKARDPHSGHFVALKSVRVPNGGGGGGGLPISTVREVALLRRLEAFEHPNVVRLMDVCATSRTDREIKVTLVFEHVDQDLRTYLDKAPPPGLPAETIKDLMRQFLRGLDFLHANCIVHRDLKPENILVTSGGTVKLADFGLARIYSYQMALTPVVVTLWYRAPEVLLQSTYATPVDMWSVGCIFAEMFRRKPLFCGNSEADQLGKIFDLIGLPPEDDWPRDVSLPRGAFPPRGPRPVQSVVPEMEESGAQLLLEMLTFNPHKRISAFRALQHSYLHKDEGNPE
Sequence of CDK4/CCND3 (P30281 whole entry partner): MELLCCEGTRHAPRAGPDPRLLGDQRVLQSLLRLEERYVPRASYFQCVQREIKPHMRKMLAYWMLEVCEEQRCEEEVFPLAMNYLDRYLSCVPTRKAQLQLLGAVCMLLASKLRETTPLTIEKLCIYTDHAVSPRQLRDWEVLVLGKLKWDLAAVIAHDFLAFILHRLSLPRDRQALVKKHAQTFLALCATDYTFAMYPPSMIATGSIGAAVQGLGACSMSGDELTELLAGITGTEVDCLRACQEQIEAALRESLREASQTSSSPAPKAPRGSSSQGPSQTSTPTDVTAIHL
Sequence of CDK6/CCND1 (Q00534 whole entry): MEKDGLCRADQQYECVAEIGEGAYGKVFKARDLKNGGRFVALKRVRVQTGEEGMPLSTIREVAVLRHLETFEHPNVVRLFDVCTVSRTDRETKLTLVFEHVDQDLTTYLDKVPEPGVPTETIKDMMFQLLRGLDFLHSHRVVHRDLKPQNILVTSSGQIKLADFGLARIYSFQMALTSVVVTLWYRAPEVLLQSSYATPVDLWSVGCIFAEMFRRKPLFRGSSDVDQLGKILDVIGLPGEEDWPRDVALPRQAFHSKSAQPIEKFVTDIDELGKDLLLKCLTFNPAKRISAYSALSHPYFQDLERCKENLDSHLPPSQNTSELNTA
Sequence of CDK6/CCND1 (P24385 whole entry partner): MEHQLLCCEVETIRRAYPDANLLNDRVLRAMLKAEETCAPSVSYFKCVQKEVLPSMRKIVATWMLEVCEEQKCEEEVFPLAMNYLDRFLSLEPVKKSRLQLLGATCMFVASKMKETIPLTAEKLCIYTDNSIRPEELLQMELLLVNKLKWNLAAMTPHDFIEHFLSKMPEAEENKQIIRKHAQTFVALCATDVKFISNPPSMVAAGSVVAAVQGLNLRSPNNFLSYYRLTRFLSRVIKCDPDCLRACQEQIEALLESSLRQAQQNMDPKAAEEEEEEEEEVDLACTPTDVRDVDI
Sequence of CDK1/CCNB1 (P06493 whole entry): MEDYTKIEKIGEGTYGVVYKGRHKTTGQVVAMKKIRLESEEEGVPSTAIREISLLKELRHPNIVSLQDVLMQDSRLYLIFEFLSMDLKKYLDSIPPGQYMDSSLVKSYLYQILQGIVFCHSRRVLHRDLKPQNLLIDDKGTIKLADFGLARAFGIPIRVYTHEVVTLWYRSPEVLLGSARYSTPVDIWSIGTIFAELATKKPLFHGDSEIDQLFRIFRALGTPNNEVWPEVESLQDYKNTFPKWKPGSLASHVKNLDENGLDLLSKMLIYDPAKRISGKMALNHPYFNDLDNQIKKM
Sequence of CDK1/CCNB1 (P14635 whole entry partner): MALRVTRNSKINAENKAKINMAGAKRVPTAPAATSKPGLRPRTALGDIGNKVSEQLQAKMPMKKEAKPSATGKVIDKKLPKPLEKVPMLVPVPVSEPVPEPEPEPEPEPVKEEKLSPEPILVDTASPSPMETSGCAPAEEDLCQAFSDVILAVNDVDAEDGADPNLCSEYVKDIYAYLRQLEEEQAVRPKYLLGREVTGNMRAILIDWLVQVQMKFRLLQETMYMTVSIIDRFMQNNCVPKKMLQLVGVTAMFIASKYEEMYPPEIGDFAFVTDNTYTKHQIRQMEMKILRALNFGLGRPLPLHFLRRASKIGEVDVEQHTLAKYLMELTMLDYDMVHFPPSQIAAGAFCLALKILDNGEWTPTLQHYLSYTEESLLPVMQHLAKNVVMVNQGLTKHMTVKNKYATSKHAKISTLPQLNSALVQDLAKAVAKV

In the case of `Cc1c(-c2nccc3cnc(Nc4ccc(S(=O)(=O)Nc5cc(N6CCOCC6)ccn5)cc4)cc23)ccc2c1cnn2CC(O)(C(F)(F)F)C(F)(F)F` [Ex 741, 4-((5-(4-methyl-1-(3,3,3-trifluoro-2-hydroxy-2-(trifluoromethyl)propyl)-1H-indazol-5-yl)-2,6-naphthyridin-3-yl)amino)-N-(4-morpholinopyridin-2-yl)benzenesulfonamide], the IC50 at CDK2/CCNE1 (setting [1]) was < 25 nM; at CDK1/CCNB1 (setting [2]), > 250 nM; on CDK4/CCND3 (setting [3]), > 250 nM; on CDK6/CCND1 (setting [4]), > 250 nM.
Turning to `COc1cc(NS(=O)(=O)c2ccc(Nc3cc4c(-c5ccc6c(cnn6CC(O)(C(F)(F)F)C(F)(F)F)c5C)nccc4cn3)cc2)nc(OC)c1` [Ex 742, N-(4,6-dimethoxypyridin-2-yl)-4-((5-(4-methyl-1-(3,3,3-trifluoro-2-hydroxy-2-(trifluoromethyl)propyl)-1H-indazol-5-yl)-2,6-naphthyridin-3-yl)amino)benzenesulfonamide], the IC50 was 25 to 250 nM at CDK2/CCNE1 (setting [5]), > 250 nM on CDK1/CCNB1 (setting [2]), > 250 nM at CDK4/CCND3 (setting [3]) and > 250 nM at CDK6/CCND1 (setting [4]).
With `COc1cnc(NS(=O)(=O)c2ccc(Nc3cc4c(-c5ccc6c(cnn6CC(O)(C(F)(F)F)C(F)(F)F)c5C)nccc4cn3)cc2)nc1` [Ex 743, N-(5-methoxypyrimidin-2-yl)-4-((5-(4-methyl-1-(3,3,3-trifluoro-2-hydroxy-2-(trifluoromethyl)propyl)-1H-indazol-5-yl)-2,6-naphthyridin-3-yl)amino)benzenesulfonamide], the IC50 was < 25 nM at CDK2/CCNE1 (setting [1]), > 250 nM on CDK1/CCNB1 (setting [2]), > 250 nM at CDK4/CCND3 (setting [3]) and > 250 nM at CDK6/CCND1 (setting [4]).
In the case of `Cc1c(-c2nccc3cnc(Nc4ccc(S(=O)(=O)Nc5nccc(C(F)(F)F)n5)cc4)cc23)ccc2c1cnn2CC(O)(C(F)(F)F)C(F)(F)F` [Ex 744, 4-((5-(4-methyl-1-(3,3,3-trifluoro-2-hydroxy-2-(trifluoromethyl)propyl)-1H-indazol-5-yl)-2,6-naphthyridin-3-yl)amino)-N-(4-(trifluoromethyl)pyrimidin-2-yl)benzenesulfonamide], the IC50 on CDK2/CCNE1 (setting [5]) was 25 to 250 nM; on CDK1/CCNB1 (setting [2]) it was > 250 nM; on CDK4/CCND3 (setting [3]), > 250 nM; at CDK6/CCND1 (setting [4]), > 250 nM.
As to `COc1cc(OC)nc(NS(=O)(=O)c2ccc(Nc3cc4c(-c5ccc6c(cnn6CC(O)(C(F)(F)F)C(F)(F)F)c5C)nccc4cn3)cc2)n1` [Ex 745, N-(4,6-dimethoxypyrimidin-2-yl)-4-((5-(4-methyl-1-(3,3,3-trifluoro-2-hydroxy-2-(trifluoromethyl)propyl)-1H-indazol-5-yl)-2,6-naphthyridin-3-yl)amino)benzenesulfonamide], the IC50 is 25 to 250 nM at CDK2/CCNE1 (setting [5]), > 250 nM on CDK1/CCNB1 (setting [2]), > 250 nM on CDK4/CCND3 (setting [3]) and > 250 nM on CDK6/CCND1 (setting [4]).
As for `Cc1c(-c2nccc3cnc(Nc4ccc(S(=O)(=O)N[C@@H](C)CCO)cc4)cc23)ccc2c1cnn2CC(C)(C)O` [Ex 746, (S)-4-((5-(1-(2-hydroxy-2-methylpropyl)-4-methyl-1H-indazol-5-yl)-2,6-naphthyridin-3-yl)amino)-N-(4-hydroxybutan-2-yl)benzenesulfonamide], the IC50 at CDK2/CCNE1 (setting [1]) was < 25 nM; at CDK1/CCNB1 (setting [2]), > 250 nM; at CDK4/CCND3 (setting [6]), 25 to 250 nM; at CDK6/CCND1 (setting [7]), 25 to 250 nM.
On to `Cc1c(-c2nccc3cnc(Nc4ccc(S(=O)(=O)N[C@H](C)CCO)cc4)cc23)ccc2c1cnn2CC(C)(C)O` [Ex 747, (R)-4-((5-(1-(2-hydroxy-2-methylpropyl)-4-methyl-1H-indazol-5-yl)-2,6-naphthyridin-3-yl)amino)-N-(4-hydroxybutan-2-yl)benzenesulfonamide], for which the IC50 at CDK2/CCNE1 (setting [1]) was < 25 nM; at CDK1/CCNB1 (setting [2]) it was > 250 nM; at CDK4/CCND3 (setting [6]) it was 25 to 250 nM; at CDK6/CCND1 (setting [7]) it was 25 to 250 nM.
As to `Cc1c(-c2nccc3cnc(Nc4ccc(NS(=O)(=O)c5nccs5)cc4)cc23)ccc2c1cnn2CC(C)(C)O` [Ex 748, N-(4-((5-(1-(2-hydroxy-2-methylpropyl)-4-methyl-1H-indazol-5-yl)-2,6-naphthyridin-3-yl)amino)phenyl)thiazole-2-sulfonamide], the IC50 on CDK2/CCNE1 (setting [1]) was < 25 nM; at CDK1/CCNB1 (setting [2]), > 250 nM; on CDK4/CCND3 (setting [3]), > 250 nM; at CDK6/CCND1 (setting [4]), > 250 nM.
Consider `Cc1c(-c2nccc3cnc(Nc4ccc(S(C)(=O)=O)c(Br)c4)cc23)ccc2c1cnn2CC(C)(C)O` [Ex 749, 1-(5-(7-((3-bromo-4-(methylsulfonyl)phenyl)amino)-2,6-naphthyridin-1-yl)-4-methyl-1H-indazol-1-yl)-2-methylpropan-2-ol], for which the IC50 was 25 to 250 nM at CDK2/CCNE1 (setting [5]), > 250 nM on CDK1/CCNB1 (setting [2]), > 250 nM at CDK4/CCND3 (setting [3]) and > 250 nM on CDK6/CCND1 (setting [4]).
In the case of `Cc1c(-c2nccc3cnc(Nc4ccc(S(C)(=O)=O)cc4Br)cc23)ccc2c1cnn2CC(C)(C)O` [Ex 750, 1-(5-(7-((2-bromo-4-(methylsulfonyl)phenyl)amino)-2,6-naphthyridin-1-yl)-4-methyl-1H-indazol-1-yl)-2-methylpropan-2-ol], the IC50 on CDK2/CCNE1 (setting [5]) was 25 to 250 nM; at CDK1/CCNB1 (setting [2]), > 250 nM; on CDK4/CCND3 (setting [3]), > 250 nM; on CDK6/CCND1 (setting [4]), > 250 nM.
As to `Cc1c(-c2nccc3cnc(Nc4ccc(NS(=O)(=O)c5cccc(N6CCN(C)CC6)c5)cc4)cc23)ccc2c1cnn2CC(C)(C)O` [Ex 751, N-(4-((5-(1-(2-hydroxy-2-methylpropyl)-4-methyl-1H-indazol-5-yl)-2,6-naphthyridin-3-yl)amino)phenyl)-3-(4-methylpiperazin-1-yl)benzenesulfonamide], the IC50 is < 25 nM on CDK2/CCNE1 (setting [1]), > 250 nM on CDK1/CCNB1 (setting [2]), > 250 nM at CDK4/CCND3 (setting [3]) and > 250 nM on CDK6/CCND1 (setting [4]).
`Cc1c(-c2nccc3cnc(Nc4ccc(NS(=O)(=O)c5cccc(N6CCOCC6)c5)cc4)cc23)ccc2c1cnn2CC(C)(C)O` [Ex 753, N-(4-((5-(1-(2-hydroxy-2-methylpropyl)-4-methyl-1H-indazol-5-yl)-2,6-naphthyridin-3-yl)amino)phenyl)-3-morpholinobenzenesulfonamide]: the IC50 on CDK2/CCNE1 (setting [1]) was < 25 nM; at CDK1/CCNB1 (setting [2]), > 250 nM; at CDK4/CCND3 (setting [3]) it was > 250 nM; at CDK6/CCND1 (setting [4]), > 250 nM.
With `Cc1c(-c2nccc3cnc(Nc4ccc(NS(=O)(=O)c5cccnn5)cc4)cc23)ccc2c1cnn2CC(C)(C)O` [Ex 754, N-(4-((5-(1-(2-hydroxy-2-methylpropyl)-4-methyl-1H-indazol-5-yl)-2,6-naphthyridin-3-yl)amino)phenyl)pyridazine-3-sulfonamide], the IC50 on CDK2/CCNE1 (setting [1]) was < 25 nM; at CDK1/CCNB1 (25-250 nM, read-out: CDK1/CCNB IC50, 25-250 nM) it was 25 to 250 nM; at CDK4/CCND3 (setting [6]), 25 to 250 nM; at CDK6/CCND1 (setting [7]) it was 25 to 250 nM.
For `Cc1c(-c2nccc3cnc(Nc4ccc(S(=O)(=O)Nc5nccc(N6CCN(CCO)CC6)n5)cc4)cc23)ccc2c1cnn2CC(O)(C(F)(F)F)C(F)(F)F` [Ex 755, N-(4-(4-(2-hydroxyethyl)piperazin-1-yl)pyrimidin-2-yl)-4-((5-(4-methyl-1-(3,3,3-trifluoro-2-hydroxy-2-(trifluoromethyl)propyl)-1H-indazol-5-yl)-2,6-naphthyridin-3-yl)amino)benzenesulfonamide], the IC50 at CDK2/CCNE1 (setting [1]) is < 25 nM; at CDK1/CCNB1 (setting [2]), > 250 nM; at CDK4/CCND3 (setting [3]), > 250 nM; on CDK6/CCND1 (setting [4]), > 250 nM.
For `Cc1c(-c2nccc3cnc(Nc4ccc(S(=O)(=O)Nc5nccc(N6CCN(C)CC6)n5)cc4)cc23)ccc2c1cnn2CC(O)(C(F)(F)F)C(F)(F)F` [Ex 756, 4-((5-(4-methyl-1-(3,3,3-trifluoro-2-hydroxy-2-(trifluoromethyl)propyl)-1H-indazol-5-yl)-2,6-naphthyridin-3-yl)amino)-N-(4-(4-methylpiperazin-1-yl)pyrimidin-2-yl)benzenesulfonamide], the IC50 was < 25 nM at CDK2/CCNE1 (setting [1]), > 250 nM at CDK1/CCNB1 (setting [2]), > 250 nM on CDK4/CCND3 (setting [3]) and > 250 nM at CDK6/CCND1 (setting [4]).
In the case of `Cc1c(-c2ncc(F)c3cnc(Nc4ccc(S(C)(=O)=O)cc4)cc23)ccc2c1cnn2CC(O)(C(F)(F)F)C(F)(F)F` [Ex 757, 1,1,1,3,3,3-hexafluoro-2-((5-(4-fluoro-7-((4-(methylsulfonyl)phenyl)amino)-2,6-naphthyridin-1-yl)-4-methyl-1H-indazol-1-yl)methyl)propan-2-ol], the IC50 on CDK2/CCNE1 (setting [5]) was 25 to 250 nM; on CDK1/CCNB1 (setting [2]), > 250 nM; at CDK4/CCND3 (setting [3]), > 250 nM; at CDK6/CCND1 (setting [4]), > 250 nM.

These data come from patent US20260325533A1, “CDK INHIBITOR COMPOUNDS” (ALEKSIA THERAPEUTICS, INC., priority 2023, published 2026).
